Data reported in patent publication US12421230B2, “Tricyclic heteroaryl compounds useful as IRAK4 inhibitors” (BRISTOL-MYERS SQUIBB COMPANY, priority 2020, dated 2025).

Experiments:
[1] = biological target: T1, IRAK4 (Homo sapiens, UniProt Q9NWZ3); experiment: IRAK4 Inhibition Assay; type: biochemical; conditions: ATP 500 μM; fluoresceinated peptide 1.5 μM; IRAK4 0.6 nM; 60 min room temperature; Caliper LABCHIP
T1 sequence (Q9NWZ3 1-460): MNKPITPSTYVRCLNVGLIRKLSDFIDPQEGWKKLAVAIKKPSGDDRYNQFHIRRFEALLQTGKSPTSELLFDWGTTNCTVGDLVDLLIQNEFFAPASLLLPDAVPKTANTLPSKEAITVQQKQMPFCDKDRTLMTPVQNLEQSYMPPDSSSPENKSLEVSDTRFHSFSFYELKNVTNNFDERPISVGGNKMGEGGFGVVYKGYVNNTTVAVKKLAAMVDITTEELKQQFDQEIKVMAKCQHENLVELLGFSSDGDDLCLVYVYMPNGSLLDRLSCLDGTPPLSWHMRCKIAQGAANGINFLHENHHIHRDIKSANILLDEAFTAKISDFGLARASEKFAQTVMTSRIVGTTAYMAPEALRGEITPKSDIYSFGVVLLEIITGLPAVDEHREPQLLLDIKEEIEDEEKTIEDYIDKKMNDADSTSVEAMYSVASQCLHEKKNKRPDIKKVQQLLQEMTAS

[2] = tested on: Human whole blood; experiment: IRAK4 Whole Blood Assay; type: cell-based; conditions: stimulated with TLR2 agonist lipoteichoic acid 10 μg/mL for 5 hours, IL-6 levels
Description: Human whole blood containing the anti-coagulant ACD-A was plated in 384-well plate (25 μL/well) and incubated with compounds for 60 minutes at 37° C. in a 5% CO2 incubator. The blood was stimulated with a TLR2 agonist, 10 μg/mL final concentration of lipoteichoic acid (Invivogen, San Diego, CA) in 25 μL RPMI (Gibco) for 5 hours in a 5% CO2 incubator. At the end of the incubation, plates were centrifuged at 2300 rpm for 5 minutes. Supernatants were harvested and analyzed for IL-6 levels by Flow Cytometry beads assay (BD Biosciences, San Jose, CA).

CC(C)(O)[C@H](F)CNC(=O)c1cnc2c([nH]c3cc(C#N)ccc32)c1Nc1cnn(CC(F)F)c1 [Example 23, (R)-7-cyano-4-((1-(2,2-difluoroethyl)-1H-pyrazol-4-yl)amino)-N-(2-fluoro-3-hydroxy-3-methylbutyl)-5H-pyrido[3,2-b]indole-3-carboxamide]
IC50 [1]: 15 nM | EC50 [2]: > 10000 nM

CC(C)(O)CCNC(=O)c1cnc2c([nH]c3cc(C#N)ccc32)c1NC1CC1 [Example 46, 7-cyano-4-(cyclopropylamino)-N-(3-hydroxy-3-methylbutyl)-5H-pyrido[3,2-b]indole-3-carboxamide]
IC50 [1]: 2.6 nM | EC50 [2]: 740 nM

CC(C)Nc1c(-c2cn(CC3CC3)nn2)cnc2c1[nH]c1cc(C#N)ccc12 [Example 74, 3-(1-(cyclopropylmethyl)-1H-1,2,3-triazol-4-yl)-4-(isopropylamino)-5H-pyrido[3,2-b] indole-7-carbonitrile]
IC50 [1]: 9.2 nM | EC50 [2]: > 10000 nM

CC(C)Nc1c(C(=O)NCCC(F)F)cnc2c1[nH]c1cc(C#N)ccc12 [Example 31, 7-cyano-N-(3,3-difluoropropyl)-4-(isopropylamino)-5H-pyrido[3,2-b]indole-3-carboxamide]
IC50 [1]: 9.5 nM | EC50 [2]: > 20000 nM

CC(=O)N[C@H]1CC[C@H](NC(=O)c2cnc3c([nH]c4cc(C#N)ccc43)c2NC(C)C)CC1 [Example 13, N-((1R,4R)-4-acetamidocyclohexyl)-7-cyano-4-(isopropylamino)-5H-pyrido[3,2-b]indole-3-carboxamide]
IC50 [1]: 3.7 nM | EC50 [2]: 2210 nM

CCNc1c(C(=O)NCCC2CCCN2)cnc2c1[nH]c1cc(C#N)ccc12 (stereo not shown) [Example 57, 7-cyano-4-(ethylamino)-N-(2-(pyrrolidin-2-yl)ethyl)-5H-pyrido[3,2-b]indole-3-carboxamide]
IC50 [1]: 18 nM | EC50 [2]: 610 nM

CC(C)Nc1c(C(=O)NCCC(F)(F)F)cnc2c1[nH]c1cc(C#N)ccc12 [Example 27, 7-cyano-4-(isopropylamino)-N-(3,3,3-trifluoropropyl)-5H-pyrido[3,2-b]indole-3-carboxamide]
IC50 [1]: 13 nM | EC50 [2]: > 10000 nM

CC(C)Nc1c(C(=O)NCc2ncn[nH]2)cnc2c1[nH]c1cc(C#N)ccc12 [Example 20, N-((1H-1,2,4-triazol-5-yl)methyl)-7-cyano-4-(isopropylamino)-5H-pyrido[3,2-b] indole carboxamide]
IC50 [1]: 14 nM | EC50 [2]: 1050 nM
